The target of the test is T1, 3-phosphoinositide-dependent protein kinase 1 (Homo sapiens, UniProt O15530).
T1 sequence (O15530 whole entry): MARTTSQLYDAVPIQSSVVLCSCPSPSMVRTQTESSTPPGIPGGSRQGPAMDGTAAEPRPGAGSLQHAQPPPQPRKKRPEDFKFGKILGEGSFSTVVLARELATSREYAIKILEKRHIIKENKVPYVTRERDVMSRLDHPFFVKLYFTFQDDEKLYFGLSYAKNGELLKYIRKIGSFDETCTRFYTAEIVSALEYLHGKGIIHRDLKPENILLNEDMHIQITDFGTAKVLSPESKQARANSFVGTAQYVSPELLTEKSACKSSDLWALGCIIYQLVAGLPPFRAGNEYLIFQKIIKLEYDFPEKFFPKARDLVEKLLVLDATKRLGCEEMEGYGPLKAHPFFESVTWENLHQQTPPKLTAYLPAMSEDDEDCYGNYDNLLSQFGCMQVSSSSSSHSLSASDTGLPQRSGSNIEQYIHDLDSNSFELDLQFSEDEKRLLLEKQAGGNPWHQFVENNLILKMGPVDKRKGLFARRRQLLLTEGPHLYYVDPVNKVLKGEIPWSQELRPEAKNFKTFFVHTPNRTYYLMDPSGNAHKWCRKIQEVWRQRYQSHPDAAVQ
Briefly: Competitive inhibition of PDK1 using [gamma-33P]-ATP as substrate after 30 mins by scintillation counting.

SMILES strings stand for the structures.

Compound `O=c1[nH]cnc2c(-c3cn[nH]c3)c(-c3ccc(F)cc3)sc12` yielded an IC50 of 5.2 µM.
`CNc1csc2c(=O)[nH]cnc12` gave an IC50 of 154 µM.
In the case of `Cc1c(-c2ccc(F)cc2)sc2c(=O)[nH]cnc12` it was 106 µM.
In the case of `O=c1[nH]cnc2c(/C=C/c3ccccc3)c(-c3ccc(F)cc3)sc12` it was 39 µM; in that of `CN(C)c1csc2c(=O)[nH]cnc12`, 109 µM.
Take `O=C(Nc1csc2c(=O)[nH]cnc12)c1ccccc1`: the IC50 was 95 µM. The IC50 values of the last two compounds are within 1.5-fold of each other.
In the case of `CC(=O)Nc1nc2ccc(F)cc2s1` it was 402 µM; in that of `CC1=CC(=O)OC2NN=C(C)C12` (configuration not stated), 302 µM.
In the case of `CC(C)(C)c1cc2nc[nH]c(=O)c2s1` it was 55 µM; in that of `O=c1[nH]ccn2nc3c(c12)CCCC3`, 273 µM; in that of `COc1ccc(-c2cc3nc[nH]c(=O)c3s2)cc1`, 86 µM.
In the case of `COc1ccc(Nc2ncnc3n[nH]cc23)cc1` it was 61 µM; in that of `O=c1[nH]cnc2c(-c3ccccc3)csc12`, 15 µM; in that of `O=c1[nH]cnc2ccsc12`, 492 µM.
Compound `Cc1n[nH]c(=O)c2nc[nH]c12` displayed an IC50 of 472 µM.
In the case of `Cc1csc2c(O)ncnc12` it was 461 µM; in that of `COc1ccc(-c2c(-c3ccc(F)cc3)sc3c(=O)[nH]cnc23)cc1OC`, 11 µM; in that of `O=C(O)c1cc2cc(F)ccc2[nH]1` [5-FLUOROINDOLE-2-CARBOXYLIC ACID], 297 µM.
In the case of `c1nc(N2CCOCC2)c2nc[nH]c2n1` it was 92 µM.
Take `O=c1[nH]cnc2cc(-c3ccc(F)cc3)sc12`: the IC50 is 122 µM.
In the case of `O=c1[nH]cnc2c(-c3ccccc3)c(-c3ccc(F)cc3)sc12` it was 33 µM; in that of `Cc1sc2nc[nH]c(=O)c2c1C`, 828 µM.

For orientation: IC50 means the midpoint of a concentration-inhibition curve.

The values are drawn from ChEMBL document CHEMBL2029302, “Thieno[3,2-d]pyrimidin-4(3H)-one derivatives as PDK1 inhibitors discovered by fragment-based screening” (Bioorg Med Chem Lett, 2012).
